# Assay results published in patent publication US6979447B2, “Immunomodulation and effect on cell processes relating to serotonin family receptors” (Philadelphia Health and Education Corporation, priority 2001, dated 2005).
# “Also recorded” adds a separate entry of the source.
# Tests used:
# human lymphocytes [1] = assay: Human mitogenic (ConA) stimulation, 3H-thymidine incorporation; assay type: cell-based; details: for effect on activation / proliferative response: ConA 5 μg/ml, harvested 72 hours, FIGS. 7A, 8A, 9A; for effect on stimulation of ConA-stimulated human PBLs: reagents at 400 μM, time course, FIG. 4
# Method: Blood from healthy volunteers was drawn using venipuncture, using Vacutainer collection sets and heparinized collection vials. The blood was diluted 1:1 using HBSS to a total volume of 30 ml in 50 ml conical tubes (Fisher Scientific, Co., Pittsburgh, Pa.). […] Cells from the buffy coats were collected and the residual Histopaque was washed away using repeated centrifugations in HBSS. After washes, cells were resuspended at 5 million cells per ml in RPMI, supplemented with 2% FBS. To remove adherent cells, the suspension was plated onto a 6 well flat-bottom plate (Corning Costar), 3 ml/well, and incubated for 2 hours at 37° C., 5% CO2. Non-adherent cells were harvested after this incubation, were counted and resuspended in RPMI supplemented with 10% human serum (Sigma).
# All drugs were pre-plated before the cell suspension was added onto each well of a 96-well round-bottom plate. All experimental conditions were assayed in at least triplicate. Cells suspended in RPMI supplemented with 10% human serum were plated at 100,000 cells per well to a final volume of 200 μl. […] Control samples received no ConA stimulation. The plates were incubated at 37° C. and 5% CO2. One microCurie of tritiated thymidine was added to each well after 60 hours, and the plates were harvested 12 hours later.
# human lymphocytes [2] = assay: Human mixed lymphocyte reaction (allogeneic stimulation); assay type: cell-based; details: allogeneic stimulation, harvested 120 hours, FIGS. 7B, 8B, 9B
# Description: Blood from two healthy, non-related, donors was taken as described above. Peripheral blood mononuclear cells were isolated as described previously elsewhere. The adherent cells were separated from the suspension cells as described previously for both donors. Suspension cells from both donors (donors A and B) were used as responders. The remaining adherent cells from each of the donors were used as stimulators against a different donor (suspension A against adherent B and adherent A against suspension B). The stimulator cells were irradiated at 35 Gy. Drugs were pre-plated onto 96 well, U-bottom plates in triplicate. 200,000 “stimulator” cells in RPMI supplemented with 10% human serum were then plated in each well. 200,000 “responder” cells in the same medium were then plated over stimulators to a final volume of 200 μl/well. Background controls received either no stimulator cells, or no responder cells. The plates were incubated at 37° C. and 5% CO2. 1 μCi of tritiated thymidine was added to each well after 4.5 days, and the plates were harvested 12 hours later.
# [3] = test system: allogeneic CTL response to P815 cells; assay: Murine allograft model, CTL killing of P815 target cells by splenocytes; assay type: in vivo, C57BL/6J mice; details: for effect on allogeneic killing response: tail vein 300 μg/injection on days 5 and 7, sacrificed day 14, FIGS. 18A, 18B; for effect on allograft (CTL) response: tail vein bolus 200 μg/injection on days 6 and 8, sacrificed day 14, FIG. 13
# Method: The in vivo validation screen used was an art-recognized murine allogeneic rejection model as described in Zhan et al., 2000. For this assay, a complete MHC miss-match system was employed wherein 5×10^6 P815 cells ([H-2^d] DBA/2 mastocytoma) were injected into the peritoneal cavity of C57BL/6J (H-2^b) mice on day 0 of the experiment. These mice typically generate a strong cytotoxic T lymphocyte (CTL) reaction in response to P815 cells. Following the initial P815 cell inoculation, the mice were allowed to develop a CTL response (this usually takes about 10-14 days). […] Mice were then sacrificed on day 14 of the experiment as indicated in the figures; and the allogeneic CTL response was assayed as described previously (Tretiakova et al., 2000, Nature Biotechnology 18:984-988). The primary spleen cells from the treated and untreated animals were used in the direct CTL readout. Freshly obtained primary spleen cells were incubated with the [^3H] labeled target cells (P815 cells) at 100:1, 50:1, 25:1, and 12.5:1 ratios for 3.5 hours at 37° C. and harvested using a PHD harvester. The percentage of specific killing was determined using the formula % kill=(S−E)/S, where S is the amount of the DNA retained by the target cells in the absence of the effector cells and E is the amount of retained DNA in the presence of the effector cells (expressed in counts per minute; cpm).
# This is an art-recognized model of allograft […] rejection based on that described by […]. (2000). In this model, there is a complete MHC mismatch between the P815 cells (H-2^d) and the C57BL6 mouse (H-2^b), thus ensuring an aggressive immune response. The data disclosed in FIG. 13, depicts results of experiments that included 6 treatment groups, each group consisting of three mice. Each mouse received 5×10^6 P815 cells injected into the peritoneal cavity on day 0 of the study. The first group was an untreated control group, which was used to establish the baseline response of the mice against the allogeneic stimulus. These mice, without any further treatments, were sacrificed, as were the other treatment groups, on day 14 of the study and their splenocytes assayed for target-specific killing of the P815 cells.
# The average kill observed for the untreated group was about 45% at an effector to target ratio of 100:1. […] The timing of the drug administration was selected to ensure that the T cells were fully activated prior to the drug treatment. The third group was treated with propanolol, a 5HT-1 antagonist. All of the 5HT receptor antagonist-treated groups were treated as described for the risperidone-treated group. The fourth group was treated chronically with CyclosporinA. The Cyclosporin A was administered ip at a dosage of 100 μg/injection starting two days prior to the onset of the study, i.e., at day-2, and the injections were continued on a daily basis for the duration of the study.
# Finally, studies conducted in vivo using the CD8-dependent allograft rejection model, in which P815 cells (a rapidly growing cell line taken from a mastocytoma in a DBA mouse), were expanded and used to create a robust rejection response in a C57BL6 mouse. In this study the mice received 5×10^6 P815 cells injected into their peritoneal cavity on day 0 of the study. The first group was an untreated control group (naïve animals), used to acquire the baseline response of the mice against the allogeneic stimulus. The positive controls were treated with the allogeneic cells without any further treatments. These animals were used to assess the induced allogeneic response against the P815 cells.
# All treatment groups were sacrificed on day 14 of the study and their splenocytes assayed for target-specific killing of the P815 cells (the averaged overall kill observed for the positive control group was about 45% at an effector to target ratio of 100:1). The serotonin-specific compounds were administered via tail vein injection (300 μg/injection) on days 5 and 7 of the study. […]
# T cells = assay: Macrophage media-conditioning study, T cell proliferation in conditioned media; assay type: cell-based, mouse; details: for conditioning effect of the media: uptake inhibitor present during the conditioning phase
# Description: Femur and tibia bones were harvested from the hind limbs of 6-8 week old C57/B6J mice (Jackson Laboratories, Bar Harbor, Me.). The distal ends of the bones were removed, exposing the marrow plugs. Using a 22 gauge needle (Becton-Dickinson, Lincoln Park, N.J.), the marrow cavities were flushed with RPMI medium supplemented 2% FBS. The cell suspension was then passed through a nylon mesh to remove stromal cells. Red blood cells were lysed using ACK (ammonium chloride potassium lysis buffer; 0.15 M NH4Cl, 10 mM KHCO3, 0.1 mM EDTA) buffer as described in Current Protocols in Immunology (Section 3.1.5).
# Cells were resuspended at 10^7 cells/ml in RPMI medium, containing 10% FBS, 500 units/ml of murine M-CSF, and 3 ml/well of cell suspension were plated onto a 6 well flat-bottom plate. […] Cells were grown for 4 days. Spleens of 6-8 week old BALB/c/BYJ were harvested, and single cell suspension was made. Red blood cells were removed as described above. Adherent cells were removed by 1.5 hour incubation on a nylon wool column, and suspension cells were collected. The BALB/c cells were then plated over the C57/B6 cells (see supra), at 1.2×10^6 cells/well, in 0.65 ml (bringing brought the final volume of each well to 1.3 ml). The cells were grown for 2.5 days. When appropriate, fluoxetine or BCH were added at the beginning of this incubation. The medium from the mixed cell cultures was harvested, centrifuged at 1200 RPM to remove cells, and filtered using a 0.22 microns syringe filter (Corning). This filtered medium was used to support another round of cell proliferation.
# RPMI-8226 cells = assay: Hematoxylin-eosin / bis-benzamide staining of RPMI-8226 cytospins; assay type: cell-based, human; details: 2 μM, 9 hour treatment, FIG. 28
# Method: 2.0×10^5 RPMI-8226 cells were cultured, in 6-well culture plates, in the presence of the indicated drug concentrations, in a total of 5 mL RPMI-1640 supplemented with 10% FBS. Each well was harvested in its entirety and divided into two identical samples for cytospins.
# 1.0×10^5 RPMI-8226 cells from each treatment group were loaded into Cyto-funnels and centrifuged at 500 rpm for 4 minutes with medium acceleration. Slides were then fixed through graded methanol in PBS (100%, 5 minutes; 80%, 5 minutes; 50%, 5 minutes), washed for 5 minutes in PBS and stored in PBS at 4° C. until stained.
# Cytospun slides were stained with Hematoxylin and Eosin, followed by the nuclear stain, bis-benzamide, rinsed and mounted according to standard staining protocols. Slides were visualized under both brightfield and fluorescent light to generate matched images of the same slide field (see, e.g., FIGS. 28 and 29).
smiles,measurement,setting,value
OC(CN1CCN(c2cccc(Cl)c2)CC1)C(c1ccccc1)c1ccccc1 (stereo not shown) [BRL 15572],effect on activation / proliferative response,human lymphocytes [1],no effect upon the proliferative response
same,effect on activation / proliferative response,human lymphocytes [2],no effect upon the proliferative response
Cn1ccc2cc3c(cc21)CCN3C(=O)Nc1cccnc1 [SB 206553],effect on activation / proliferative response,human lymphocytes [1],inhibit the activation response at pharmacologically relevant concentrations
same,in vitro effect on activation response / helper T cell proliferation (summary statement),human lymphocytes [1],immediate cessation of proliferation
same,effect on activation / proliferative response,human lymphocytes [2],inhibit the activation response at pharmacologically relevant concentrations
same,effect on allogeneic killing response,[3],striking
same,effect on allograft (CTL) response,[3],inhibited the allograft response to varying degrees
same,individual mouse responses within treated group,"[3]; three treated mice, FIG. 14",Two of the treated mice had the allogeneic response completely suppressed; also recorded: Two of the three treated mice inhibited the allograft response to a degree equivalent to that observed in the Cyclosporin A-treated animals
CC(O)C(C)OC(=O)[C@@H]1C[C@@H]2c3cccc4c3c(cn4C(C)C)C[C@H]2N(C)C1 (stereo partly shown) [LY 53857],effect on activation / proliferative response,human lymphocytes [1],inhibit the activation response at pharmacologically relevant concentrations
same,effect on activation / proliferative response,human lymphocytes [2],inhibit the activation response at pharmacologically relevant concentrations
NNCCc1ccccc1 [phenelzine],drug concentration giving significant inhibition,"human lymphocytes [1]; ConA 0.1 and 1 μg/ml, FIGS. 5A and 5B",10 to 100 µM
same,drug concentration giving full inhibition,human lymphocytes [1]; higher ConA stimulation (10 μg/ml),100 to 400 µM
same,effect on proliferative response,"human lymphocytes [1]; highest ConA dose, 10 μg/ml, harvest 72 hours, FIG. 5C",no inhibition was observed
same,effect on stimulation of ConA-stimulated human PBLs,human lymphocytes [1],completely shut down the stimulation
"NCCc1c[nH]c2ccc(O)cc12 [serotonin, 5-hydroxytryptamine]",relief of phenelzine-induced inhibition,"human lymphocytes [1]; ConA 1 μg/ml, added to phenelzine-inhibited cells, 100 μM each, FIG. 6",caused the assay to rebound to baseline levels
same,effect on proliferative response,"human lymphocytes [1]; ConA 1 μg/ml, reagent 100 μM, FIG. 6",did not
same,effect on the assay across ConA concentrations,"human lymphocytes [1]; ConA 0.1, 1 and 10 μg/ml, harvest 72 hours, FIG. 5",no effect on the assay until the highest dose of ConA
same,effect on stimulation of ConA-stimulated human PBLs,human lymphocytes [1],enhanced the maximal stimulation of the cells
same,restoration of T cell proliferation in conditioned media,"T cells; added to conditioned media, FIG. 1",only marginally restored the assay
COc1ccccc1N1CCN(CCN(C(=O)C2CCCCC2)c2ccccn2)CC1 [WAY 100635],in vitro effect on activation response / helper T cell proliferation (summary statement),human lymphocytes [1],significantly inhibits the activation response
NC1(C(=O)O)CC2CCC1C2 (stereo not shown) [2-amino 2-norbornane carboxylic acid],conditioning effect of the media,T cells,can be prevented
CNCCC(Oc1ccc(C(F)(F)F)cc1)c1ccccc1 (stereo not shown) [fluoxetine],conditioning effect of the media,T cells,can be prevented
"N[C@@H](Cc1ccc(Cl)cc1)C(=O)O (racemic) [PCPA, para-chlorophenylalanine]",effect on mitogenic response,"human lymphocytes [1]; ConA 1 μg/ml, human PBLs, FIG. 3",inhibits the mitogenic response in a dose-dependent manner
CC[C@@]1(O)C(=O)OCc2c1cc1n(c2=O)Cc2cc3ccccc3nc2-1 [camptothecin],chromatin / nuclear morphology,RPMI-8226 cells,Extensive chromatin condensation and nuclear fragmentation
N[C@@H](Cc1c[nH]c2ccc(O)cc12)C(=O)O [5-hydroxy-tryptophan],effect on proliferation response,"human lymphocytes [1]; 25 μM, in the absence of PCPA, FIG. 3",significantly enhanced the proliferation response
same,reversal of PCPA inhibition of the mitogenic response,"human lymphocytes [1]; added to PCPA-inhibited cells, FIG. 3",this inhibition can be reversed
CC[C@@H](CO)NC(=O)[C@@H]1C=C2c3cccc4c3c(cn4C)C[C@H]2N(C)C1 [methysergide],effect on allogeneic killing response,[3],complete inhibition of the induced killing response; also recorded: abrogated the allogeneic killing response; also recorded: inhibition profile was striking
same,effect on allograft (CTL) response,[3],inhibited the allograft response to varying degrees
